Data set [1] concerns 13 other carbonic anhydrases. As to the kind of experiment: Binding to other carbonic anhydrases.
The subject of a further data set is MN-expressing MaTu cells. The data set can be described thus: FACS cell binding, MaTu cells. It is filed as cell-based, human.
For data set [2], the system named is MN-expressing cells (PC3 mm2). The data set can be described thus: Antibody internalization (Cellomics), PC3 mm2. It is filed as cell-based, human.
The subject of a further data set is MN-negative cells (DLD1). The data set can be described thus: Antibody internalization (Cellomics), DLD1. It counts as cell-based.
For data set [3], the system named is MN-expressing cells (PC3 mm2). The data set can be described thus: Spindle formation / tubulin staining, Pc3 mm2. The following applies: tubulin stained with fluorescence labeled antibody. It counts as cell-based, human. From the text: (§1) The cytotoxic drug MMAE delivered by 3ee9/MMAE is a tubulin inhibitor that prevents spindle formation during cell mitosis resulting in G2/M arrest. The tubulin is stained with florescence labeled antibody. […] These studies confirmed that the antibody drug conjugate 3ee9/MMAE kills cell through targeted tubulin disruption.

Data set [4] relates to MN non-expressing cells (H460). The data set can be described thus: Spindle formation / tubulin staining, H460. The note with it: tubulin stained with fluorescence labeled antibody. It is filed as cell-based.
Text: as §1

In data set [5] the test system is PC3 mm2 human prostate tumor xenograft. As to the kind of experiment: PC3 mm2 subcutaneous xenograft model. It is filed as in vivo, NCr nu/nu mice. The note with it: for animals showing responses: PC3MM2.
Description: The in vivo anti-tumor effect of 3ee9/MMAE was examined in 6 different human xenograft tumor models. These models were established through subcutaneous implantation of human tumor cells into female athymic NCr (nu/nu) mice (Taconic, N.Y.). […] PBS was used as a vehicle, and dosing solutions were prepared fresh daily. The dosing volume was 0.1 mL/10 g (10 mL/kg).
The length and width of each tumor were measured using an electronic caliper 2-3 times per week, and tumor weights (mg) were calculated based on the formula of [length (mm)×width (mm)^2]/2. […] Tumor growth inhibition (TGI) was calculated as (1-T/C)×100, where T=final tumor weights from a treated group after the last dose, and C=final tumor weights from the control group after the last dose. In addition, anti-tumor efficacy was measured as the incidence of responses (or responders or regressions) defined as tumors with ≦50% of their initial size. A minimum duration of 7 days is required for a response to be considered durable.
The anti-tumor activity of 3ee9/MMAE was next evaluated against human prostate (PC-3 mm2) and CRC (Colo-205) tumor xenografts. Female NCr nu/nu mice were implanted subcutaneously (s.c.) either with 5×10^6 PC3 mm2 or Colo-205 cells. Treatment was initiated when tumors were of an average size of approximately 125-150 mg. The general health of mice was monitored and recorded daily. Tumor dimensions and body weights were recorded twice a week starting with the first day of treatment.
In the PC3 mm2 and Colo-205 studies, 3ee9/MMAE was administered intravenously (i.v.) once every 4th day for a total of 3 injections (Q4Dx3) at doses of 1, 3, 10 and 30 mg/kg and 1.25, 2.5, 5 and 10 mg/kg, respectively.
In data set [6] the test system is HCT-15 multi-drug resistant (P-gp) CRC xenograft. The data set can be described thus: HCT-15 multi-drug resistant xenograft model. It is filed as in vivo, NCr nu/nu mice. The following applies: HCT-15 MDR model. On the procedure:
To examine the effect of 3ee9/MMAE in a multi-drug resistance model, female NCr nu/nu mice were implanted subcutaneously (s.c.) with 5×10^6 HCT-15 cells. HCT-15 is a multi-drug resistant (MDR) line that over-expresses P-glycoprotein (P-gp). […] 3ee9/MMAE, Taxol, and Gemcitabine were administered when mice had established tumors with mean weight of ˜150 mg. Gemcitabine, a pyrimidine analog that is not a P-gp substrate was used as a positive control.

The subject of data set [7] is low MN-expressing MIAPaCa2 pancreatic xenograft. As to the kind of experiment: MIAPaCa2 xenograft model. It counts as in vivo, mice. How it is done:
To better understand the relationship between MN expression and antitumor efficacy, xenograft efficacy studies were conducted using a low MN-expressing pancreatic model, MIAPaCa2 and high MN-expressing huMN-MIAPaCa2 model. This latter line was derived by engineering the MIAPaCa2 line to stably express MN. […] 3ee9/MMAE dosed at 10 mg/kg only produced 50% TGI.

The test system of another data set is tubulin in HT-29 tumors. The data set can be described thus: In vivo mechanism of action, immunohistochemistry of HT-29 tumors. The arrangement: species or system athymic mice. How it is done: To explore the in vivo mechanism of action of 3ee9/MMAE, tumors were implanted subcutaneously at right flank of the mice with 5×10^6 HT-29 cells. Eight days later, athymic mice bearing HT-29 tumors were treated with vehicle or with 3ee9/MMAE at 1.25 and 5 mg/kg (Q1Dx1). Tumors were collected and fixed in formalin 4 hours and 1, 3 and 5 hours following administration of 3ee9/MMAE. Samples were then embedded in paraffin, sectioned at 5 μm, de-paraffinized, and stained using standard protocol for fluorescent immunohistochemistry of human tissues using mouse antibodies: Anti-α/β-tubulin, Anti-phospho-Histone H3, and DNA. The slides were then observed under a fluorescent microscope, and representative images were taken through three separate color channels.
3ee9/MMAE had little effect in affecting cell mechanism in the 4 hr samples. […] In addition, decreased level of tubulin staining could be observed. These effects were then highly amplified in the day 3 and day 5 samples.

Another data set is described as follows: In vivo distribution. The arrangement: species or system mice. The note with it: Table 4 profile. From the text: The Maestro™ in-vivo imaging system (CRI, Woburn, Mass.) with multi-spectral acquisition and analysis is designed to eliminate auto-fluorescence background. Mabs 3ee9 of BAY 79-4620, M75 (mouse monoclonal recognizing MN) and control human IgG, were conjugated with Alexa Fluor 750 (Invitrogen Cat# A20011) according to manufacturer's instructions. The ratio of Protein/AF750 (mol/mol) was 1/5.9 for 3ee9, 8.9 for human IgG, and 6.0 for M75.
Twelve days before the injection of each fluorescence-labeled antibody, Harlan Balb/C nudes were implanted with MIAPaCa-2 (low MN-expressing; 7.5×10^6 cells in 50% Matrigel) subcutaneously in the right flank, and huMN-MIAPaCa2 (MN transfected stable cell line; 5×10^6 cells in 50% Matrigel) subcutaneously in the left flank. 4 μg of conjugated antibody was injected on Day 0 (12 days post implant) to each animal. Imaging was done on Day 4, Day 5 and Day 10. Data were collected using animals that were anaesthetized (100 mg/kg ketamine/10 mg/kg xylazine, i.p.), and placed inside the imaging system. Multi-spectral image cubes (series of images) were acquired with images spaced every 10 nm throughout the spectral range of 680 to 950 nm, which covered the Near Infrared (NIR) range.
Each image was exposed for 5 seconds. False-colored images were synthesized from the spectral cube using Maestro software and scaled to visible brightness using ImagePro Plus 6.0. […]

Another data set deals with MN (Homo sapiens, UniProt Q16790). As to the kind of experiment: Immunoprecipitation of biotinylated cell surface proteins. The arrangement: incubated with cell lysates of MN+ (Pc3 mm2) and MN− (DLD-1) cell lines that had been selectively labeled with biotin; endogenous in cells; host or cells: PC-3 mm2 (MN+); DLD-1 as the MN- control. The note with it: Table 4 profile. It counts as binding. How it is done:
To further explore specificity, various candidate antibodies including the antibody portion of 3ee9/MMAE (3ee9) and the reference antibody G250 were incubated with cell lysates of MN+ (Pc3 mm2) and MN− (DLD-1) cell lines that had been selectively labeled with biotin. Complexes between the antibodies and cellular proteins were immuno-precipitated and the co-precipitated antigens visualized using immunoblots developed with enzyme-linked streptavidin.

As for “3ee9/MMAE: human anti-MN IgG1 antibody 3ee9 conjugated to Monomethylauristatin E (MMAE)”, the “binding to other carbonic anhydrases” value in data set [1] was “no detectable binding”. The “cell binding by FACS” value in the data set on MN-expressing MaTu cells is “bind to MN-expressing MaTu cells”. In addition, the internalization entry in data set [2] is given as “selectively internalized”; in the data set on MN-negative cells (DLD1) it was “not by MN-negative cells (DLD1)”. Also, the “effect on spindle formation” value in data set [3] is “fragmented fibers resulting from tubulin binding with MMAE and prevention of normal spindle formation”; in data set [4], “No activity”. Further, the anti-tumor effects result in data set [5] (PC3-mm2 human prostate xenograft model) is “anti-tumor effects were seen”. Also, the animals showing responses in [5] (3 mg/kg) is on record as 20%; in [5] (10 and 30 mg/kg i.v. Q4Dx3) it was 100%. The tolerability entry in data set [5] (PC3 mm2 (1, 3, 10, 30 mg/kg) and Colo-205 (1.25, 2.5, 5, 10 mg/kg) studies, i.v. Q4Dx3) was “well tolerated at all doses evaluated”. For the same substance, the anti-tumor effect entry in data set [6] is reported as “failed to produce any significant anti-tumor effect”. Besides, the “effect in inhibiting growth” value in [7] is “minimal effect”. In addition, the “cells affected by treatment in tumors” value in the data set with tubulin in HT-29 tumors (5 mg/kg Q1Dx1, day 5) is on record as “almost all cells”. For the same substance, in the data set on tubulin in HT-29 tumors (1.25 and 5 mg/kg Q1Dx1, 4 hr samples), the “effect on cell mechanism in tumors” value was “little effect”. In the data set with tubulin in HT-29 tumors (1.25 and 5 mg/kg Q1Dx1, day 1), the “G2/M arrest, spindle and tubulin staining in tumors” value was “increased numbers of cells were in G2/M arrest”. In the data set “In vivo distribution”, the In vivo distribution entry is “normal”. Also, the Immunoprecipitation entry with MN is “specific”.

Values taken from patent publication US20120301468A1, “ANTI-MN ANTIBODIES AND METHODS OF USING SAME” (BAYER HEALTHCARE LLC, priority 2005, published 2012).
